ChEMBL document CHEMBL5352390, “Design, synthesis and biological evaluation of (Quinazoline 4-yloxy)acetamide and (4-oxoquinazoline-3(4H)-yl)acetamide derivatives as inhibitors of Mycobacterium tuberculosis bd oxidase” (2022)
≈ marks a conversion by molar mass, not a printed value. Calls of active or inactive are those of the source. The calls are words filed in the database; no cut-off is given here.

How the values were obtained:
[1] = test system: Mycobacterium tuberculosis; assay: Antimycobacterial activity against wild type Mycobacterium tuberculosis H37Rv assessed as inhibition of bacterial growth incubated for 7 days by resazurin microplate assay; format: functional; details: 168 h, time 7 day
[2] = test system: Mycobacterium tuberculosis; assay: Synergistic antimycobacterial activity against wild type Mycobacterium tuberculosis H37Rv assessed as fractional inhibitory concentration index incubated for 7 days in presence of Q203 by checkboard format based resazurin microplate assay; format: functional; details: time 7 day
[3] = test system: Mycobacterium tuberculosis; assay: (§1) Inhibition of wild type Mycobacterium tuberculosis H37Rv cytochrome bd oxidase assessed as reduction in total cellular ATP level by measuring relative luminescence unit at 32 uM incubated for 15 hrs in presence of Q203 by BacTiter-Glo microbial cell viability reagent based bioluminescence assay relative to control (Rvb= 13.73%)
[4] = test system: Mycobacterium tuberculosis; assay: Synergistic bactericidal activity against wild type Mycobacterium tuberculosis H37Rv under hypoxia condition assessed as reduction in log10 CFU at 32 uM incubated for 3 days in presence of Q203 by Methylene blue dye based CFU assay; format: functional; details: time 3 day
[5] = test system: Mycobacterium tuberculosis; assay: Bactericidal activity against wild type Mycobacterium tuberculosis H37Rv under hypoxia condition assessed as reduction in log10 CFU at 32 uM incubated for 3 days by Methylene blue dye based CFU assay; format: functional; details: time 3 day
[6] = test system: Mycobacterium tuberculosis; assay: Inhibition of wild type Mycobacterium tuberculosis H37Rv cytochrome bd oxidase assessed as inhibition of oxygen consumption at 16 to 64 uM and measured after 5 days by Methylene blue dye based assay; details: dose 16-64 µM, time 5.0 day
[7] = test system: Mycobacterium tuberculosis; assay: Inhibition of wild type Mycobacterium tuberculosis H37Rv cytochrome bd oxidase assessed as inhibition of oxygen consumption at 16 to 64 uM and measured for 20 days in presence of Q203 by Methylene blue dye based assay; details: dose 16-64 µM, time 20.0 day
[8] = test system: Mycobacterium tuberculosis; assay: as §1, with “hrs” for “hrs in presence of Q203”
[9] = test system: Mycobacterium tuberculosis; assay: Bactericidal activity against wild type Mycobacterium tuberculosis H37Rv under hypoxia condition assessed as reduction in log10 CFU at 0.5 ug/ml incubated for 3 days by Methylene blue dye based CFU assay; format: functional, organism-based; details: dose 0.5 µg/ml, time 3.0 day
[10] = test system: Mycobacterium tuberculosis; assay: as §1, with “0.1” for “32”, “hrs” for “hrs in presence of Q203”
[11] = test system: Mycobacterium tuberculosis; assay: Inhibition of wild type Mycobacterium tuberculosis H37Rv cytochrome bd oxidase assessed as inhibition of oxygen consumption at 0.1 uM and measured after 5 days by Methylene blue dye based assay; details: time 5.0 day
[12] = test system: Mycobacterium tuberculosis; assay: Bactericidal activity against wild type Mycobacterium tuberculosis H37Rv under hypoxia condition assessed as reduction in log10 CFU at 0.03 uM incubated for 3 days by Methylene blue dye based CFU assay; format: functional; details: time 3 day
[13] = test system: Mycobacterium tuberculosis; assay: Bactericidal activity against wild type Mycobacterium tuberculosis H37Rv under hypoxia condition assessed as reduction in log10 CFU at 0.5 uM incubated for 3 days by Methylene blue dye based CFU assay; format: functional; details: time 3 day

Compound | MIC [1] [µM] | also measured
O=C(COc1ncnc2ccccc12)NCc1ccc(N2CCN(Cc3ccccc3)CC2)cc1 | > 32 | 
O=C(COc1ncnc2ccccc12)Nc1ccccc1 | 128 (≈ 35.8 µg/mL) | fractional inhibitory concentration index (FICI) [2]: 1.062; inhibition [3]: 89.8%; Activity [4]: 4 log10CFU; Activity [5]: 1.9 log10CFU; inhibition [6]: inactive; inhibition [7]: Active; inhibition [8]: 7%
O=C(COc1ncnc2ccccc12)Nc1ccc(C(F)(F)F)cc1 | > 32 | 
NNC(=O)c1ccncc1 |  | Activity [9]: inactive
O=C(Cn1cnc2ccccc2c1=O)Nc1ccc([N+](=O)[O-])cc1 | > 32 | 
O=C(Cn1cnc2ccccc2c1=O)Nc1ccc(C(F)(F)F)cc1 | > 32 | 
O=C(Cn1cnc2ccccc2c1=O)Nc1ccc(F)cc1 | > 32 | 
CCc1nc2ccc(Cl)cn2c1C(=O)NCc1ccc(N2CCC(c3ccc(OC(F)(F)F)cc3)CC2)cc1 [TELACEBEC] | 0.016 (≈ 0.00891 µg/mL) | inhibition [10]: 33.4%; inhibition [11]: inactive; Activity [12]: 0.8 log10CFU
COc1ccc(N2CCN(c3ccc(CNC(=O)COc4ncnc5ccccc45)cc3)CC2)cc1 | > 32 | 
Cc1ccccc1NC(=O)COc1ncnc2ccccc12 | > 32 | 
COc1ccccc1NC(=O)Cn1cnc2ccccc2c1=O | > 32 | 
COc1nc2ccc(Br)cc2cc1[C@@H](c1ccccc1)[C@@](O)(CCN(C)C)c1cccc2ccccc12 [BEDAQUILINE] |  | Activity [13]: 2.3 log10CFU
Cc1ccc(NC(=O)Cn2cnc3ccccc3c2=O)cc1 | > 32 | 
O=C(Cn1cnc2ccccc2c1=O)Nc1ccccc1 | > 32 | 
O=C(COc1ncnc2ccccc12)Nc1ccc(Br)cc1 | > 32 | 
CSc1ccc(NC(=O)Cn2cnc3ccccc3c2=O)cc1 | > 32 | 

Compound | MIC [1] [µM] | also measured
COc1ccccc1NC(=O)COc1ncnc2ccccc12 | > 32 | 
O=C(COc1ncnc2ccccc12)NCc1ccccc1 | > 32 | 
O=C(COc1ncnc2ccccc12)Nc1ccc(F)cc1 | > 32 | 
O=C(Cn1cnc2ccccc2c1=O)NC1=C(C(F)(F)F)CCC=C1 | > 32 | 
O=C(COc1ncnc2ccccc12)NCc1ccc(N2CCN(c3ccccc3)CC2)cc1 | > 32 | 
O=C(Cn1cnc2ccccc2c1=O)Nc1ccc(Br)cc1 | > 32 | 
O=C(Cn1cnc2ccccc2c1=O)Nc1ccc(OC(F)(F)F)cc1 | > 32 | 
O=C(Cn1cnc2ccccc2c1=O)Nc1ccc(Cl)cc1 | > 32 | 
Cc1ccc(NC(=O)COc2ncnc3ccccc23)cc1 | > 32 | 
COc1ccc(NC(=O)COc2ncnc3ccccc23)cc1 | > 32 | 
O=C(COc1ncnc2ccccc12)NCc1ccc(N2CCC(c3ccccc3)CC2)cc1 | > 32 | 
O=C(COc1ncnc2ccccc12)NCc1ccc(N2CCN(c3ccc(F)cc3)CC2)cc1 | > 32 | 
O=C(COc1ncnc2ccccc12)Nc1ccc(Cl)cc1 | 256 (≈ 80.3 µg/mL) | fractional inhibitory concentration index (FICI) [2]: 0.375; inhibition [3]: 91.2%; Activity [4]: 4 log10CFU; Activity [5]: 1.9 log10CFU; inhibition [6]: inactive; inhibition [7]: Active; inhibition [8]: 22.8%
O=C(COc1ncnc2ccccc12)Nc1ccc(OC(F)(F)F)cc1 | > 32 | 
COc1ccc(NC(=O)Cn2cnc3ccccc3c2=O)cc1 | > 32 | 
O=C(COc1ncnc2ccccc12)Nc1cccc2ccccc12 | > 32 | 
